Experimental data reported in US9326506B2, “Preparation method, agricultural composition and applications of natural brassinolide analogs” (CHENGDU NEWSUN CROPSCIENCE CO., LTD, priority 2012, dated 2016).

Tested on: rice
Experiment: Low temperature assay on rice seedlings
Type: in vivo
In short: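 Nine-day-old etiolated rice seedlings (grown on water at 30 °C±2 °C, dark) immersed in brassinolide analogues at 1–0.0001 mg/L or pure water, held at 1–5 °C for 24 hr. Plant height, leaf area, root weight read at 3, 6, 9, 12 days; leaf and tiller number at 12 days.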

## CC(C)(O)CC[C@@H](O)[C@](C)(O)[C@H]1CC[C@@]2(O)[C@@H]3CC(=O)[C@@H]4C[C@@H](O)[C@@H](O)C[C@]4(C)[C@H]3CC[C@]12C [BR6]
0.01 mg/l, 3 °C, 9 days
  Height: 7.4 cm
  Weight of root: 2.9 g
0.01 mg/l, 3 °C, 12 days
  Area of leaf: 13.2 cm^2
  Height: 7.6 cm
  Number of leaf: 3
  Number of tiller: 2
  Weight of root: 2.9 g
0.01 mg/l, 4 °C, 3 days
  Area of leaf: 10.8 cm^2
  Height: 7.1 cm
  Weight of root: 2.5 g
0.01 mg/l, 4 °C, 6 days
  Area of leaf: 12.4 cm^2
  Height: 7.3 cm
  Weight of root: 2.6 g
0.01 mg/l, 4 °C, 9 days
  Area of leaf: 13.7 cm^2
  Height: 7.6 cm
  Weight of root: 2.9 g
0.01 mg/l, 4 °C, 12 days
  Area of leaf: 13.7 cm^2
  Height: 7.8 cm
  Number of leaf: 3
  Number of tiller: 2
  Weight of root: 3.0 g
0.01 mg/l, 5 °C, 3 days
  Area of leaf: 10.9 cm^2
  Height: 7.7 cm
  Weight of root: 2.8 g
0.01 mg/l, 5 °C, 6 days
  Area of leaf: 13.9 cm^2
  Height: 7.8 cm
  Weight of root: 3.0 g
0.01 mg/l, 5 °C, 9 days
  Area of leaf: 17.1 cm^2
  Height: 8.1 cm
  Weight of root: 3.4 g
0.01 mg/l, 5 °C, 12 days
  Area of leaf: 18 cm^2
  Height: 8.5 cm
  Number of leaf: 4
  Number of tiller: 3
  Weight of root: 3.9 g
0.1 mg/l, 1 °C, 3 days
  Area of leaf: 10.1 cm^2
  Height: 7.0 cm
  Weight of root: 2.8 g
0.1 mg/l, 1 °C, 6 days
  Area of leaf: 12 cm^2
  Height: 7.3 cm
  Weight of root: 3.0 g
0.1 mg/l, 1 °C, 9 days
  Area of leaf: 12.9 cm^2
  Height: 7.3 cm
  Weight of root: 3.4 g
0.1 mg/l, 1 °C, 12 days
  Area of leaf: 13.4 cm^2
  Height: 7.5 cm
  Number of leaf: 3
  Number of tiller: 3
  Weight of root: 3.7 g
0.1 mg/l, 2 °C, 3 days
  Area of leaf: 10.4 cm^2
  Height: 7.1 cm
  Weight of root: 2.9 g
0.1 mg/l, 2 °C, 6 days
  Area of leaf: 11.8 cm^2
  Height: 7.2 cm
  Weight of root: 3.0 g
0.1 mg/l, 2 °C, 9 days
  Area of leaf: 12.8 cm^2
  Height: 7.3 cm
  Weight of root: 3.1 g
0.1 mg/l, 2 °C, 12 days
  Area of leaf: 13 cm^2
  Height: 7.4 cm
  Number of leaf: 3
  Number of tiller: 3
  Weight of root: 3.2 g
0.1 mg/l, 3 °C, 3 days
  Area of leaf: 10.5 cm^2
  Height: 7.2 cm
  Weight of root: 2.5 g
0.1 mg/l, 3 °C, 6 days
  Area of leaf: 12 cm^2
  Height: 7.3 cm
  Weight of root: 2.6 g
0.1 mg/l, 3 °C, 9 days
  Area of leaf: 12.8 cm^2
  Height: 7.4 cm
  Weight of root: 2.8 g
0.1 mg/l, 3 °C, 12 days
  Area of leaf: 13.2 cm^2
  Height: 7.5 cm
  Number of leaf: 3
  Number of tiller: 2
  Weight of root: 2.9 g
0.1 mg/l, 4 °C, 3 days
  Area of leaf: 10.8 cm^2
  Height: 7.1 cm
  Weight of root: 2.5 g
0.1 mg/l, 4 °C, 6 days
  Area of leaf: 12.5 cm^2
  Height: 7.4 cm
  Weight of root: 2.7 g
0.1 mg/l, 4 °C, 9 days
  Area of leaf: 13.5 cm^2
  Height: 7.5 cm
  Weight of root: 2.9 g
0.1 mg/l, 4 °C, 12 days
  Area of leaf: 13.8 cm^2
  Height: 7.7 cm
  Number of leaf: 3
  Number of tiller: 2
  Weight of root: 3.1 g
0.1 mg/l, 5 °C, 3 days
  Area of leaf: 11.1 cm^2
  Height: 7.7 cm
  Weight of root: 2.9 g
0.1 mg/l, 5 °C, 6 days
  Area of leaf: 13.9 cm^2
  Height: 7.8 cm
  Weight of root: 3.2 g
0.1 mg/l, 5 °C, 9 days
  Area of leaf: 17.8 cm^2
  Height: 8.4 cm
  Weight of root: 3.5 g
0.1 mg/l, 5 °C, 12 days
  Area of leaf: 18.9 cm^2
  Height: 8.6 cm
  Number of leaf: 3
  Number of tiller: 2
  Weight of root: 4 g
1 mg/l, 1 °C, 3 days
  Area of leaf: 10 cm^2
  Height: 7.1 cm
  Weight of root: 2.8 g
1 mg/l, 1 °C, 6 days
  Area of leaf: 11.2 cm^2
  Height: 7.2 cm
  Weight of root: 3.1 g
1 mg/l, 1 °C, 9 days
  Area of leaf: 12.4 cm^2
  Height: 7.3 cm
  Weight of root: 3.4 g
1 mg/l, 1 °C, 12 days
  Area of leaf: 12.8 cm^2
  Height: 7.3 cm
  Number of leaf: 3
  Number of tiller: 3
  Weight of root: 3.9 g
1 mg/l, 2 °C, 3 days
  Area of leaf: 10.2 cm^2
  Height: 7.1 cm
  Weight of root: 2.8 g
1 mg/l, 2 °C, 6 days
  Area of leaf: 11.7 cm^2
  Height: 7.2 cm
  Weight of root: 3.0 g
1 mg/l, 2 °C, 9 days
  Area of leaf: 12.6 cm^2
  Height: 7.3 cm
  Weight of root: 3.2 g
1 mg/l, 2 °C, 12 days
  Area of leaf: 13.1 cm^2
  Height: 7.6 cm
  Number of leaf: 3
  Number of tiller: 3
  Weight of root: 3.9 g
1 mg/l, 3 °C, 3 days
  Area of leaf: 10.4 cm^2
  Height: 7.1 cm
  Weight of root: 2.5 g
1 mg/l, 3 °C, 6 days
  Area of leaf: 12.2 cm^2
  Height: 7.3 cm
  Weight of root: 2.6 g
1 mg/l, 3 °C, 9 days
  Area of leaf: 12.6 cm^2
  Height: 7.5 cm
  Weight of root: 2.9 g
1 mg/l, 3 °C, 12 days
  Area of leaf: 13.2 cm^2
  Height: 7.6 cm
  Number of leaf: 3
  Number of tiller: 2
  Weight of root: 2.9 g
1 mg/l, 4 °C, 3 days
  Area of leaf: 10.9 cm^2
  Height: 7.1 cm
  Weight of root: 2.5 g
1 mg/l, 4 °C, 6 days
  Area of leaf: 12 cm^2
  Height: 7.5 cm
  Weight of root: 2.6 g
1 mg/l, 4 °C, 9 days
  Area of leaf: 13.4 cm^2
  Height: 7.5 cm
  Weight of root: 3.0 g
1 mg/l, 4 °C, 12 days
  Area of leaf: 14 cm^2
  Height: 7.7 cm
  Number of leaf: 3
  Number of tiller: 2
  Weight of root: 3.2 g
1 mg/l, 5 °C, 3 days
  Area of leaf: 11.1 cm^2
  Height: 7.7 cm
  Weight of root: 2.9 g
1 mg/l, 5 °C, 6 days
  Area of leaf: 13.6 cm^2
  Height: 8.0 cm
  Weight of root: 3.6 g
1 mg/l, 5 °C, 9 days
  Area of leaf: 18.9 cm^2
  Height: 8.8 cm
  Weight of root: 3.7 g
1 mg/l, 5 °C, 12 days
  Area of leaf: 20 cm^2
  Height: 8.9 cm
  Number of leaf: 3
  Number of tiller: 2
  Weight of root: 4.5 g
In vivo
  Effects on resistance to low temperature compared among analogues: more than those of BR2, BR3 and BR4
